Measured values taken from US20240299415A1, “TREATMENT METHOD FOR INTERSTITIAL PNEUMONIA” (priority 2020, published 2024).

Columns and labels:
Type in all cases: in vivo
[1] = test system: bleomycin-induced pulmonary fibrosis model in rats; assay: Dexamethasone side effect indicators (blood lipid metabolism) in the bleomycin-induced rat pulmonary fibrosis model; settings: FIG. 3; for leptin level compared with the normal control rats: bleomycin model rats
Protocol: (§1) The quarantine and domestication period was 1 week, after which rats were serpentinely grouped by body weight into control and interstitial pneumonia model groups. On day 0 of the study, rats in the model group were given a single dose of 5 mg/kg bleomycin by a single intratracheal injection of bleomycin. The rats in the control group were given a single drop of saline. Immediately after completion, the animals were placed in an upright position and rotated to facilitate uniform distribution of the drug in the lungs. The animals were placed prone in a warm environment for natural awakening. Animals were fed and watered freely after awakening.
Serum potassium, glucose, triglycerides (TGs), total cholesterol (TC), free fatty acid (FFA), high density lipoprotein (HDL-c), low density lipoprotein (LDL-c), corticosterone (Corticosterone), and blood glucose were measured. HDL-c), low-density lipoprotein cholesterol (LDL-c), corticosterone (CORT), insulin, leptin, 5-hydroxy tryptamine (5-HT), […] norepinephrine (NE).

[2] = test system: bleomycin-induced rat model of pulmonary fibrosis; assay: Blood inflammatory and pro-fibrotic cytokines (ELISA) in the bleomycin-induced rat model of pulmonary fibrosis; settings: for bleomycin-induced changes of multiple inflammatory cytokines in the blood of rats (overall statement): compared with the model group, N=6-10
Protocol: as §1
(§2) After the last administration, rats in each group were fasted without water for 12 h, anesthetized by intraperitoneal injection of […] chloral hydrate (3.5 mL/kg), blood was taken from the abdominal aorta, and the serum was separated by centrifugation at 3500 rpm for 15 min. ELISA was performed to detect the cytokines TNF-α, IL-1β, IFN-γ, IL-6, TGF-β1, and IL-4 in alveolar lavage fluid and serum, MCP-1/CCL2, and to detect the content of HYP, MMP2, MMP9, αvβ6, and VEGF in lung tissues, the steps were the same as the standard procedure of the kit.

[3] = test system: bleomycin-induced pulmonary fibrosis model in rats; assay: Pro-fibrotic proteins and type I collagen in lung tissue of the bleomycin-induced rat pulmonary fibrosis model; settings: FIG. 2; for multiple pro-fibrotic proteins and collagen type I in rat lung tissues (overall statement): compared with the model group, N=3
Protocol: as §1, §2

[4] = SD rats, bleomycin 5 mg/kg intratracheal day 0, drug by gavage once daily days 1-28, FIG. 1
[5] = bleomycin decreased the level, drug once daily days 1-28, FIG. 1
[6] = bleomycin model rats, change statistically significant

**Q.** What does the source list for `C[C@@H]1C[C@H]2[C@@H]3CCC4=CC(=O)C=C[C@]4(C)[C@@]3(F)[C@@H](O)C[C@]2(C)[C@@]1(O)C(=O)CO` [dexamethasone]?
**A.** leptin level compared with the normal control rats [1]: significantly reduced; total cholesterol in the blood ([1]; dexamethasone treatment in bleomycin model rats): increase; triglycerides in the blood ([1]; dexamethasone treatment in bleomycin model rats, increase more pronounced than for total cholesterol): increase

**Q.** Which “blood level of IL-1β” value [2, 4] does the source give for `CCCCCC(=O)O[C@]1(C(C)=O)CC[C@H]2[C@@H]3CCC4=CC(=O)CC[C@]4(C)[C@H]3CC[C@@]21C` [hydroxyprogesterone caproate] here?
**A.** significantly reduced

**Q.** What about the “blood level of IL-6” value [2, 4] of the same compound?
**A.** significantly reduced

**Q.** And the “blood level of MCP-1” value [2, 4]?
**A.** significantly reduced

**Q.** What about the “blood level of TGF-β1” value [2, 4] of the same compound?
**A.** significantly reduced

**Q.** What about the “blood level of TNF-α” value [2, 4] of the same compound?
**A.** significantly reduced

**Q.** What about the “blood level of IFN-γ” value [2, 5] of the same compound?
**A.** significantly and statistically increased

**Q.** And the “blood level of IL-4” value [2, 5]?
**A.** significantly and statistically increased

**Q.** And the “bleomycin-induced changes of multiple inflammatory cytokines in the blood of rats (overall statement)” value ([2]; FIG. 1)?
**A.** significantly improve

**Q.** What about the “bleomycin-induced changes of multiple inflammatory cytokines in the blood of rats (overall statement)” value ([2]; FIG. 1, listed as 17-αhydroxyprogesterone) of the same compound?
**A.** significantly ameliorated

**Q.** And the “combined improvement effect on inflammatory and pro-fibrotic factors in the blood, compared with pirfenidone” value ([2]; versus positive control drug pirfenidone (54 mg/kg))?
**A.** significantly better than that of the positive control drug pirfenidone

**Q.** And the “CXCL-12 level in lung tissue” value ([3]; bleomycin model rats)?
**A.** reduced

**Q.** And the “MMP9 level in lung tissue” value ([3]; bleomycin model rats)?
**A.** reduced

**Q.** What about the “collagen type I COL I protein level in lung tissue” value ([3]; bleomycin model rats) of the same compound?
**A.** reduced

**Q.** What about the “MMP2 level in lung tissue” value [3, 6] of the same compound?
**A.** reduced

**Q.** What about the “PDGF level in lung tissue” value [3, 6] of the same compound?
**A.** reduced

**Q.** What about the “SMAD2 level in lung tissue” value [3, 6] of the same compound?
**A.** reduced

**Q.** What about the “SMAD3 level in lung tissue” value [3, 6] of the same compound?
**A.** reduced

**Q.** And the “TGF-β1 level in lung tissue” value [3, 6]?
**A.** reduced

**Q.** What about the “multiple pro-fibrotic proteins and collagen type I in rat lung tissues (overall statement)” value [3] of the same compound?
**A.** significant inhibitory effects

**Q.** And the “multiple pro-fibrotic proteins and collagen type I in rat lung tissues (overall statement)” value ([3]; listed as 17-αhydroxyprogesterone)?
**A.** significantly ameliorated

**Q.** What about the “leptin level compared with the normal control rats” value [1] of the same compound?
**A.** significantly reduced
